Legend:
[1] = Biodegradation in seawater, OECD TG 306 28 day method; details: OECD TG 306, 28 days
Method: Environmental experiments were performed to test biodegradation and toxicity. The biodegradation tests used the standard OECD Guideline for Testing of Chemicals TG 306 (Biodegradability in Seawater) 28 day method (version adopted 17 Jul. 1992) for testing biodegradation of chemicals in seawater.

[2] = tested on: Skeletonema costatum; assay: Toxicity against Skeletonema costatum; type: cell-based; details: over 72 hours
Method: The toxicity of a quaternary ammonium compound or an LDHI composition comprising the quaternary ammonium compound may be evaluated by testing against Skeletonema costatum and determining EC50 values in the aquatic environment. Also the percentage biodegradation may be measured after 28 days in seawater.
Toxicity was tested against Skeletonema costatum and EC50 values determined (over 72 hours).

Biodegradation after 28 days [1]: 11%
Structure (SMILES): CCCCCCCCCCCCCC[P+](CCCC)(CCCC)CCCC.[Cl-] [TTPC, tributyl tetradecylphosphonium chloride]
EC50 [2]: 0.016 µg/mL

Source: patent US10550304B2, “Quaternary ammonium compounds and gas hydrate inhibitor compositions” (M-I DRILLING FLUIDS UK LIMITED, priority 2013, dated 2020)
